Entries after “also recorded” stand apart in the source; their conditions may differ.
Experiments:
HT1080 = assay: Inhibition of anchorage-independent tumor cell growth, HT1080; assay type: cell-based; settings: Homo sapiens, HT-1080, 336 h; HT1080, 14 days, soft agar
Protocol: (§1) HT1080 is a […] with a N-ras mutation. MIApaca-2 is a pancreatic carcinoma and Sw620 is a colonic carcinoma; each of these has a K-ras mutation. T24 is a bladder carcinoma with a H-ras mutation; and zH1 is a H-ras-transformed NIH/3T3 mouse fibroblast. Additional compounds have been tested and have yielded positive results in these organ-specific or ras-protein specific anchorage-independent tumor cell models.
(§2) Five tumor cell lines were seeded at 600 cells/well (12-well plates) in 0.6 mL of 0.3% Noble agar in culture medium over a bottom agar layer (0.5% Noble agar in culture medium). The culture medium was Dulbecco's modified Eagle's medium (Nissui Pharmaceutical Co., Ltd., Tokyo, Japan), supplemented with 10% heat-inactivated calf serum (GIBCO, Grand Island, N.Y.). A 10 mM stock solution of inhibitor compound PD331 in DMSO was diluted with culture medium to 3× the final concentration and 0.6 mL of the diluted inhibitor solution was overlayed on each well. Controls contained the same amount of DMSO as inhibitor samples. Plates were incubated at 37° C. in 5% CO2 for 14 days. Colonies were counted by replacement of the overlaying medium with 0.6 mL of 2 mg/mL MTT in PBS, incubation for 30 min, and quantitation of scanned photographs. IC50 concentrations for each cell line are shown below in Table 3.

[1] = system: H-ras farnesylation in H-ras (61L) transformed NIH3T3 fibroblasts; assay: Inhibition of H-ras farnesylation in whole cells (Western blot); assay type: cell-based, mouse; settings: Mus musculus, NIH3T3, 24 h, Table 2
Protocol: The ability of compounds of the invention to inhibit H-ras farnesylation and rap1 geranylgeranylation in whole cells was determined. H-ras (61L) transformed NIH3T3 fibroblasts were generously provided by C. Der, Univ. N. Carolina. These fibroblasts were treated for 24 h with 50 μM lovastatin (control) or the indicated concentrations of inhibitor. The cells were lysed in 1% NP-40, 5 mM Tris-HCl (pH 8.0), 5 mM EDTA, 0.1 mM N-tosyl-L-phenylalanine chloromethyl ketone, 0.1 mM N-tosyl-L-lysine chloromethyl ketone, and 1 mM phenylmethylsulfonyl fluoride. The lysate was centrifuged (15000×g, 5 min.) and the supernatant was used as a cell extract. […] After transfer to IMMOBILON P™ membrane (Millipore), the blots were probed with LA069 mouse monoclonal antibody to H-ras (Quality Biotech), or rabbit polyclonal antibody to rap1/Krev (Santa Cruz Biotechnology). All Western blots were developed using ECL chemiluminescent reagents (Amersham).

Sw620 = assay: Inhibition of anchorage-independent tumor cell growth, Sw620; assay type: cell-based; settings: Homo sapiens, SW-620, 336 h; Sw620, 14 days, soft agar
Protocol: as §1, §2

[2] = system: H-ras (61L) transformed NIH3T3 fibroblast tumors; assay: Inhibition of tumor xenograft in mice, Example D (PD331); assay type: in vivo, mouse; settings: for T/C (%) Volume / Tumor Volume: day 14
Protocol: Cells were harvested from exponential-phase maintenance cultures (T-225 cm^2 culture flasks, Corning Inc., Corning, N.Y.) with trypsin-EDTA (GIBCO), centrifuged at 160 ×g for 5 min, washed once with 10 mL cold Hank's balanced salt solution (HBSS, GIBCO), and resuspended at a concentration of 1×10^6 cells/mL. Five week old female athymic nude mice were obtained from SLC (3371-8, Kotoummachi, Hamamatsu-shi, Shizuoka 431-11, Japan) and maintained under pathogen-free conditions. […] Inhibitor compound PD331 was suspended in saline containing 2% Tween-80 in a total injection volume of 0.2 mL. Two dosage concentrations were prepared, 0.3 mg/mouse or 1.0 mg/mouse. Compound PD331 was subcutaneously injected daily at the site of tumor cell implantation for 5 consecutive days, starting approximately 8 h after the implantation (day 0). The control group was injected with vehicle only. Body weight and tumor dimensions were measured at days 7, 10, and 14. Tumor volume was estimated by the following calculation: tumor volume =(0.5)(length×width×width). At day 14, each mouse was euthanized with CO2 (g), and each tumor was excised and weighed. The statistical significance was estimated by the Student's T-test.

FTase = biological target: T1, FTase (Bos taurus, UniProt P29702+P49355); assay: Inhibition of FTase-mediated prenylation (in vitro prenylation assay); assay type: biochemical; settings: Table 1; partially purified FTase, 3 μM recombinant H-ras, 440 nM [3H]FPP, 15 min 37° C
T1 construct: bovine brain by inference from the cited Moores et al. 1991
Text: (§3) Nanomolar concentrations of the indicated compounds were sufficient to inhibit farnesylation of ras proteins in vitro. For screening candidate compounds useful for the treatment of ras-associated tumors, the FTase assay is preferred. […] Substitutions which confer GGTase specificity as taught herein also produced potent inhibitors of GGTase.

T24 = assay: Inhibition of anchorage-independent tumor cell growth, T24; assay type: cell-based; settings: Homo sapiens, T-24, 336 h; T24, 14 days, soft agar
Protocol: as §1, §2

GGTase = assay: Inhibition of GGTase-mediated prenylation (in vitro prenylation assay); assay type: biochemical; settings: Table 1; partially purified GGTase, 5 μM recombinant H-ras (61L, CAIL), 1 μM [3H] geranylgeranyl diphosphate
Text: as §3

[3] = system: zH1 (H-ras-transformed NIH/3T3 mouse fibroblast); assay: Inhibition of anchorage-independent tumor cell growth, zH1; assay type: cell-based; settings: NIH3T3, 336 h, zH1, 14 days, soft agar
Protocol: as §1, §2

MIApaca-2 = assay: Inhibition of anchorage-independent tumor cell growth, MIApaca-2; assay type: cell-based; settings: Homo sapiens, MIA PaCa-2, 336 h; MIApaca-2, 14 days, soft agar
Protocol: as §1, §2

[4] = system: H-ras (61L) transformed NIH3T3 fibroblast tumors; assay: Inhibition of tumor xenograft in mice, Example E (PM061); assay type: in vivo, mouse; settings: for T/C (%) Volume / Tumor Volume: day 15
Protocol: H-ras (61L) transformed NIH3T3 fibroblasts were grown in Dulbecco's modified Eagle's medium supplemented with 10% heat-inactivated calf serum. 100 U/mL penicillin, 100 μg/mL streptomycin, and 0.75 mg/mL G418 (GIBCO) and incubated at 37° C. in 5% CO2. Cells were harvested from exponential-phase maintenance cultures (T-225 cm^2 culture flasks, Corning Inc., Corning, N.Y.) with trypsin-EDTA (GIBCO), centrifuged at 160 ×g for 5 min, washed once with 10 mL cold Hank's balanced salt solution (HBSS, GIBCO), and resuspended at a concentration of 1×10^6 cells/mL.
Five week old female athymic nude mice were obtained from SLC (3371-8, Kotoummachi, Hamamatsu-shi, Shizuoka 431-11, Japan) and maintained under pathogen-free conditions. The mice were subcutaneously injected in the lateral flank with 1×10^5 H-ras transformed cells/mouse.
Inhibitor compound PD331 was suspended in saline containing 2% Tween-80 in a total injection volume of 0.2 mL. Two dosage concentrations were prepared, 0.3 mg/mouse or 1.0 mg/mouse. Compound PD331 was subcutaneously injected daily at the site of tumor cell implantation for 5 consecutive days, starting approximately 8 h after the implantation (day 0). The control group was injected with vehicle only. Body weight and tumor dimensions were measured at days 7, 10, and 14. Tumor volume was estimated by the following calculation: tumor volume =(0.5)(length×width×width). At day 14, each mouse was euthanized with CO2 (g), and each tumor was excised and weighed. The statistical significance was estimated by the Student's T-test.
The same in vivo experiment as Example D above was performed, using compound PM061. Instead of 0.3 mg/mouse and 1.0 mg/mouse, three injection concentrations were prepared (0.5 mg/mouse, 1.0 mg/mouse, and 2.0 mg/mouse). Body weight and tumor size were measured at days 7, 10, and 15. Tumors were excised at day 15.

[5] = 0.3 mg/mouse s.c. daily for 5 days
[6] = 1.0 mg/mouse s.c. daily for 5 days

CSCC[C@H](NC(=O)C(/C=C\[C@@H](/C=C/[C@@H](N)CS)C(C)C)Cc1ccccc1)C(=O)O (stereo partly shown) [PD331]
IC50 (HT1080): 1.8 µM
IC50 [1]: 0.4 µM
IC50 (Sw620): 22 µM
T/C (%) Volume [2, 5]: 53.3%
Tumor Volume [2, 5]: 871.28 ± 526.90 µL
T/C (%) Volume [2, 6]: 16.5%
Tumor Volume [2, 6]: 269.55 ± 292.95 µL
weight and volume of tumors versus control group ([2]; every concentration): both the weight and the volume of the tumors from the treated group were less than the weight and volume of tumors from the control group
effect on H-ras tumor growth in mice ([2]; mouse, in vivo): has a significant effect on H-ras tumor growth in mice; also recorded: effectively inhibited the growth of ras-associated tumors in mice
IC50 (FTase): 0.011 µM
IC50 (T24): 0.3 µM
IC50 (GGTase): 0.013 µM
IC50 [3]: 0.6 µM
IC50 (MIApaca-2): 19 µM

CSCC[C@H](NC(=O)c1cc(C/C=C/C(N)CS)ccc1-c1ccccc1)C(=O)O (stereo partly shown) [PM061]
IC50 [1]: 4.8 µM
IC50 (FTase): 0.007 µM
IC50 (GGTase): 0.144 µM
T/C (%) Volume ([4]; 0.5 mg/mouse s.c.): 90.3%
Tumor Volume ([4]; 0.5 mg/mouse s.c.): 2360.4 ± 645.0 µL
T/C (%) Volume ([4]; 1.0 mg/mouse s.c.): 101.8%
Tumor Volume ([4]; 1.0 mg/mouse s.c.): 2660.3 ± 756.4 µL
T/C (%) Volume ([4]; 2.0 mg/mouse s.c.): 53.6%
Tumor Volume ([4]; 2.0 mg/mouse s.c.): 1400.6 ± 703.2 µL
tumor volume as % of the tumor volume in the control mouse ([4]; injection of 2.0 mg): 53.2%
effect on H-ras tumor growth in mice ([4]; mouse, in vivo): had a significant effect on H-ras tumor growth in mice; also recorded: effectively inhibited the growth of ras-associated tumors in mice

Source: patent US5840918A, “Isoprenyl transferase inhibitors” (Eisai Co., Ltd., priority 1997, dated 1998)
